Counter-ions that a name gives are not always drawn. Like-named read-outs stand apart in the source and are kept apart here.
How the values were obtained:
HCT15 / SKBR3 = experiment: SRB cytotoxicity ratio HCT15/SKBR3 (topoisomerase resistance); type: cell-based, human; conditions: 2880 min
[1] = tested on: DDP (Cisplatin resistant ovarian carcinoma cell line) / S (A2780); experiment: SRB cytotoxicity ratio DDP/S (cisplatin resistance); type: cell-based, human; conditions: 2880 min
CaCo2 / CX1 = conditions: human, Caco-2, 48 h
Experimental: The cytotoxic activity of the pyrrolo[4,3,2-de]quinolin-8(1H)-ones against a panel of >20 human tumor cell lines is determined using the Sulforhodamine B protein dye-binding colorimetric cytotoxicity assay (SRB) described by Skehan et al. (Journal National Cancer Institute 82:1107-1112, 1990), as modified by Monks et al., (Journal National Cancer Institute 83: 757-766, 1991). […] Positive controls (i.e., etoposide) are included in every experiment. Treatments are for 48 hours, after which cells are fixed in 10% trichloroacetic acid (10% final concentration), washed five times with deionized water and stained with SRB solution (0.4% in glacial acetic acid). Protein-bound stain is solubilized with 0.1 ml tris buffer and the adsorbance values are recorded with a microplate reader. Duplicate plates of cells are fixed with trichloroacetic acid at the time of drug addition to establish To values, as described by Monks et al. (JNCl, 83: 757-766, 1991). The effect of drug treatments over the five-long range of concentrations is calculated using the formula, T--To/C--To, to determine the IC50 values.
3) The ratio values for DDP/S; CaCo2/CX1; MIP/SW620, and; HCT15/SKBR3 refer to the IC50 value for resistant cell lines included in the tumor cell panel, divided by the IC50 value for corresponding drug sensitive cell lines. For example, DDP is a Cisplatin resistant ovarian carcinoma cell line, and S is the corresponding parent drug sensitive ovarian carcinoma cell line (A2780). […] CaCo2 is a slow growing non P-glycoprotein multidrug resistant colon carcinoma cell line. MIP is a colon carcinoma cell line that expresses P-glycoprotein and is multidrug resistant; SW620 is a drug sensitive colon carcinoma cell line. HCT15 is a colon carcinoma cell line that is resistant to topoisomerase inhibitors and SKBR3 is a breast carcinoma that is very sensitive to topoisomerase inhibitors.

[2] = tested on: panel of >20 human tumor cell lines; experiment: In vitro tumor panel evaluation, Sulforhodamine B (SRB) cytotoxicity assay; type: cell-based; conditions: for IC50: Homo sapiens
MIP / SW620 = experiment: SRB cytotoxicity ratio MIP/SW620 (MDR, P-glycoprotein resistance); type: cell-based, human; conditions: 2880 min
[3] = IC50 resistant / IC50 sensitive cell line, topoisomerase resistance
[4] = IC50 resistant / IC50 sensitive cell line, cisplatin resistance
[5] = Mean IC50 value for all 20 cell lines, 48 hours
[6] = human, ddp/s ovarian carcinoma cells
[7] = IC50 resistant / IC50 sensitive cell line, MDR (pglycoprotein) resistance
[8] = Mean IC50 value for all 20 cell lines, 48 hours, read-out: AVG IC50
[9] = least sensitive cell line, 48 hours, read-out: MAX IC50
[10] = most sensitive cell line, 48 hours, read-out: MIN IC50
[11] = least sensitive cell line, 48 hours
[12] = most sensitive cell line, 48 hours

| Molecule | HCT15/SKBR3 IC50 ratio (HCT15 / SKBR3; [3]) | DDP/S IC50 ratio [1, 4] | CaCO2/CX1 IC50 ratio (CaCo2 / CX1) | AVG IC50 [2, 5] [µg/mL] | HCT15/SKBR3 IC50 ratio (HCT15 / SKBR3; human, hct15/skbr3 cells) | DDP/S IC50 ratio [1, 6] | IC50 ([2]; 48 h, read-out: AVG IC50) [µg/mL] | IC50 ([2]; 48 h, read-out: MAX IC50) [µg/mL] | IC50 ([2]; 48 h, read-out: MIN IC50) [µg/mL] | MIP/SW620 IC50 ratio (MIP / SW620; [7]) | IC50 [2, 8] [µg/mL] | IC50 [2, 9] [µg/mL] | IC50 [2, 10] [µg/mL] | MIP/SW620 IC50 ratio (MIP / SW620; human, mip/sw620 cells) | MAX IC50 [2, 11] [µg/mL] | MIN IC50 [2, 12] [µg/mL] |
| --- | --- | --- | --- | --- | --- | --- | --- | --- | --- | --- | --- | --- | --- | --- | --- | --- |
| 7-(Cyclohexylamino)-1,3,4,8-tetrahydro-5-methyl-8-oxo-pyrrolo[4,3,2-de]quinolinium trifluoroacetate [Example 41] | 737.0 | 1.8 | 8.3 | 6.5 | – | – | – | – | – | – | – | – | – | – | – | – |
| CC(CCC(C)NC1=CC2=[N+](C)CCc3c[nH]c(c32)C1=O)NC1=CC2=[N+](C)CCc3c[nH]c(c32)C1=O (racemic) [Example 57, 7,7'-(1,4-Dimethyl-1,4-butanediyldiimino)-bis[1,3,4,8-tetrahydro-5-methyl-8-oxo-pyrrolo[4,3,2-de]quinolinium trifluoroacetate] | – | – | 100.8 | – | 32.1 | 1.8 | 13 | 50 | 0.43 | – | – | – | – | – | – | – |
| O=C1CC2SC3CC2(C=C1Br)C1=C(N3)C(=O)c2[nH]cc3c2C1=NCC3 (centres unmarked) [Example 9, discorhabdin A] | – | – | – | – | – | 1.4 | – | – | – | – | – | – | – | – | – | – |
| C[N+]1=C2C(Cl)=C(N)C(=O)c3[nH]cc(c32)CC1 [Example 10, 7-Amino-6-chloro-1,3,4,8-tetrahydro-5-methyl-8-oxo-pyrrolo[4,3,2-de]quinolinium trifluoroacetate] | 1.5 | – | 0.25 | – | – | – | – | – | – | 0.7 | 5.1 | 10 | 1.29 | – | – | – |
| C[N+]1=C2C(Br)=C(N)C(=O)c3[nH]c(Br)c(c32)CC1 [Example 13, 7-Amino-2,6-dibromo-1,3,4,8-tetrahydro-5-methyl-8-oxo-pyrrolo[4,3,2-de]quinolinium trifluoroacetate] | 1.7 | 1.1 | 0.7 | – | – | – | – | – | – | 0.9 | 2.4 | 7.71 | 0.4 | – | – | – |
| Cn1cc2c3c1C(=O)C(N)=C(Br)C3=NCC2 [Example 14, 7-Amino-6-bromo-3,4-dihydro-1-methyl-8-oxo-pyrrolo [4,3,2-de]quinolin-8 (1H) -one trifluoroacetate] | – | – | 0.8 | – | 2.1 | 1.2 | – | – | – | – | 2.3 | 3.54 | 0.84 | 1.4 | – | – |
| C[N+]1=C2C=C(N)C(=O)c3c2c(cn3Cc2cccc(Cl)c2)CC1 [Example 21, 7-Amino-1-[(3-chlorophenyl]methyl]-1,3,4,8-tetrahydro-5-methyl-8-oxo-pyrrolo[4,3,2-de]quinolinium trifluoroacetate] | 7.1 | 1.5 | 0.8 | – | – | – | – | – | – | 7.0 | 1.4 | 4.47 | 0.28 | – | – | – |
| COc1cccc(Cn2cc3c4c2C(=O)C(N)=CC4=[N+](C)CC3)c1 [Example 23, 7-Amino-1,3,4,8-tetrahydro-1-[(3-methoxyphenyl)methyl]-5-methyl-8-oxo-pyrrolo[4,3,2-de]quinolinium trifluoroacetate] | 3.8 | 1.2 | 1.0 | – | – | – | – | – | – | 8.6 | 2.1 | 4.2 | 0.45 | – | – | – |
| COC(=O)CCNC1=CC2=[N+](C)CCc3cn(Cc4ccccc4)c(c32)C1=O [Example 25, 1,3,4,8-tetrahydro-7-[(3-methoxy-3-oxopropyl)amino]-5-methyl-8-oxo-1-(phenylmethyl)pyrrolo[4,3,2-de]quinolinium trifluoroacetate] | 23.5 | 6.1 | 7.3 | – | – | – | – | – | – | – | 13 | 50 | 1.32 | – | – | – |
| COC(=O)CCNC1=CC2=[N+](C)CCc3cn(CCC(=O)OC)c(c32)C1=O [Example 27, 1,3,4,8-Tetrahydro-1-(3-methoxy-3-oxopropyl)-7-[7-[(3-methoxy-3-oxopropyl)amino]-5-methyl-8-oxo-pyrrolo[4,3,2-de]quinolinium trifluoroacetate] | 288.0 | 5.1 | 15.1 | – | – | – | – | – | – | – | 15 | 50 | 0.17 | – | – | – |
| Cn1cc2c3c1C(=O)C(N)=CC3=[N+](C)CC2 [Example 29, 7-Amino-1,3,4,8-tetrahydro-1,5-dimethyl-8-oxo-pyrrolo[4,3,2-de] quinolinium trifluoroacetate] | – | – | 2.9 | – | 1.8 | – | 2.6 | 5.7 | 1.03 | – | – | – | – | 1.8 | – | – |
| CNC1=CC2=[N+](C)CCc3cn(C)c(c32)C1=O [Example 30, 1,3,4,8-Tetrahydro-1,5-dimethyl-7-(methylamino)-8-oxo-pyrrolo[4,3,2-de]quinolinium trifluoroacetate] | 12.7 | 1.1 | 3.6 | – | – | – | – | – | – | 65.8 | 4.5 | 25.9 | 0.41 | – | – | – |
| C=CC[N+]1=C2C=C(N)C(=O)c3c2c(cn3C)CC1 [Example 31, 7-Amino-1,3,4,8-tetrahydro-1-methyl-8-oxo-5-(2-propenyl)[4,3,2-de]quinolinium trifluoroacetate] | 2.7 | 1.2 | 0.6 | – | – | – | – | – | – | 8.0 | 1.7 | 2.59 | 0.34 | – | – | – |
| Cn1cc2c3c1C(=O)C(N)=CC3=[N+](Cc1ccccc1)CC2 [Example 32, 7-Amino-1,3,4,8-tetrahydro-1-methyl-8-oxo-5-(phenylmethyl)-pyrrolo[4,3,2-de]quinolinium trifluoroacetate] | – | – | 1.8 | – | 3.5 | – | 2.1 | 10 | 0.37 | – | – | – | – | 0.9 | – | – |
| CNC1=CC2=[N+](C)CCc3c[nH]c(c32)C1=O [Example 35, 1,3,4,8-Tetrahydro-5-methyl-7-(methylamino)-8-oxo-pyrrolo[4,3,2-de]quinolinium trifluoroacetate] | 9.1 | 1.0 | 1.3 | – | – | – | – | – | – | 20.3 | 5.7 | 24.4 | 1.2 | – | – | – |
| CCCCCCCCN(CCCCCCCC)C1=CC2=[N+](C)CCc3c[nH]c(c32)C1=O [Example 39, 1,3,4,8-Tetrahydro-5-methyl-7-(dioctylamino)-8-oxo-pyrrolo[4,3,2-de]quinolinium trifluoroacetate] | 122.0 | 1.7 | 4.8 | – | – | – | – | – | – | 9.0 | 0.8 | 2.71 | 0.19 | – | – | – |
| CC(C)NC1=CC2=[N+](C)CCc3c[nH]c(c32)C1=O.O=C([O-])C(F)(F)F [Example 40, 1,3,4,8-Tetrahydro-5-methyl-7-[(2-methylethyl)amino]-8-oxo-pyrrolo[4,3,2-de]quinolinium trifluoroacetate] | 102.0 | 1.3 | 8.3 | 5.8 | – | – | – | – | – | – | – | – | – | – | 50 | 0.25 |
| C[N+]1=C2C=C(NCc3ccoc3)C(=O)c3[nH]cc(c32)CC1.O=C([O-])C(F)(F)F [Example 43, 7-[(3-Furanylmethyl)amino]-1,3,4,8-tetrahydro-5-methyl-8-oxo-pyrrolo[4,3,2-de]quinolinium trifluoroacetate] | 78.5 | 1.6 | 19.8 | 6.4 | – | – | – | – | – | 90.8 | – | – | – | – | 36.3 | 0.27 |
| C[N+]1=C2C=C(NCc3ccc(C(=O)O)cc3)C(=O)c3[nH]cc(c32)CC1 [Example 45, 7-[[(4-Carboxylphenyl)methyl]amino]-1,3,4,8-tetrahydro-5-methyl-8-oxo-pyrrolo[4,3,2-de]quinolinium trifluoroacetate] | 1.6 | 1.2 | – | – | – | – | – | – | – | 1.2 | 33 | 50 | 8.99 | – | – | – |
| COc1ccc(CNC2=CC3=[N+](C)CCc4c[nH]c(c43)C2=O)cc1 [Example 48, 1,3,4,8-Tetrahydro-7-[[(4-methoxyphenyl)methyl]amino]-5-methyl-8-oxo-pyrrolo[4,3,2-de]quinolinium trifluoroacetate] | 2090.0 | 11.0 | 38.0 | – | – | – | – | – | – | – | 7.7 | 50 | 0.02 | – | – | – |
| Cn1cc2c3c1C(=O)C(=O)C=C3NCC2.O=C(O)C(F)(F)F [Example 51, 1,3,4,5-Tetrahydro-1-methyl-pyrrolo[4,3,2-de]quinoline-7,8-dione trifluoroacetate] | – | – | – | – | – | – | – | – | – | – | 48 | 50 | 35.6 | – | – | – |
| Cc1[nH]c2c(c1C)C1=[N+](C)CCc3c[nH]c(c31)C2=O [Example 54, 3,5,6,7-Tetrahydro-1,8,9-trimethyl-6-oxo-2M-dipyrrolo[4,3,2-de:2',3'-h]quinolinium trifluoroacetate] | 3.9 | 1.2 | 4.2 | – | – | – | – | – | – | – | 18 | 50 | 2.26 | – | – | – |

Reference: patent publication US5414001A, “Antineoplastic pyrrolo[4,3,2-de]quinolin-8(1H)-ones” (American Cyanamid Company, priority 1993, dated 1995)
